From patent US5677326A, “Indoline compound and 5-HT3 receptor antagonist containing the same as active ingredient” (Tokyo Tanabe Company Limited, priority 1993, dated 1997)

Experiments:
[1] = system: cisplatin-induced vomiting; experiment: Inhibiting effect on cisplatin-induced vomiting; format: in vivo, ferrets; settings: oral, 1 hour before cisplatin; for No. of retching / No. of vomiting animals/No. of animals used / No. of vomitings: 6 hours
Text: Inhibiting effect on cisplatin-induced vomiting:
Vomiting was induced in ferrets by administration of cisplatin. The inhibiting effect on this vomiting was observed. […] The test agents were orally administered one hour prior to cisplatin administration. […]

gastric emptying = experiment: Accelerating effect on gastric emptying (cisplatin-reduced); format: in vivo, SD rats; settings: oral, 30 min before cisplatin 10 mg/kg
Protocol: Accelerating effect on gastric emptying
Seven-week-old male SD rats which had been fasted for 24 hours were used. The effect on gastric emptying was studied in rats with reduced gastric emptying due to cisplatin. The rats were intragastrically administered the test feed (1.5% aqueous CMC solution containing 50 mg/100 ml phenol red) at 1.5 ml/rat, and after 15 minutes the stomachs were dissected, the residual amount of phenol red in the stomach was measured, in order to determine the gastric emptying in normal animals. A cisplatin-induced reduction in gastric emptying was measured by intraabdominal administration of cisplatin (10 mg/kg) 30 minutes prior to supplying the test feed. The test compound was also administered orally 30 minutes prior to the cisplatin administration to study the accelerating effect of the test compound on gastric emptying.

vomiting = settings: The Japanese Journal of Pharmacology 57, 387-395 (1991); cited from earlier work
[2] = system: restraint stress-induced diarrhea; experiment: Inhibiting effect on restraint stress-induced diarrhea (intraabdominal administration); format: in vivo, Wistar rats; settings: 30 μg/kg, 30 min before stress
Protocol: Inhibiting effect on restraint stress-induced diarrhea (intraabdominal administration): This test was conducted in the same manner as Test 3. Nine- to ten-week-oldmale Wistar rats fasted overnight were placed in a stress case and their feces produced in 5 hours were observed. Of 15 rats, 14 developed diarrhea. The inhibiting effect on diarrhea was measured by intraabdominal administration of a test compound 30 minutes prior to placement in the stress cage.

[3] = molecular target: T1, 5-HT3 receptors in the heart (Rattus norvegicus, UniProt P35563); experiment: Antagonism against Von Bezold-Jarisch reflex (BJ reflex); format: in vivo, SD rats; settings: iv, 5 min before serotonin 30 μg/kg, read-out: ID50 (the source's name)
T1 construct: from tissue; host or cells: living anesthetized male SD rats (in vivo)
T1 sequence (P35563 24-483): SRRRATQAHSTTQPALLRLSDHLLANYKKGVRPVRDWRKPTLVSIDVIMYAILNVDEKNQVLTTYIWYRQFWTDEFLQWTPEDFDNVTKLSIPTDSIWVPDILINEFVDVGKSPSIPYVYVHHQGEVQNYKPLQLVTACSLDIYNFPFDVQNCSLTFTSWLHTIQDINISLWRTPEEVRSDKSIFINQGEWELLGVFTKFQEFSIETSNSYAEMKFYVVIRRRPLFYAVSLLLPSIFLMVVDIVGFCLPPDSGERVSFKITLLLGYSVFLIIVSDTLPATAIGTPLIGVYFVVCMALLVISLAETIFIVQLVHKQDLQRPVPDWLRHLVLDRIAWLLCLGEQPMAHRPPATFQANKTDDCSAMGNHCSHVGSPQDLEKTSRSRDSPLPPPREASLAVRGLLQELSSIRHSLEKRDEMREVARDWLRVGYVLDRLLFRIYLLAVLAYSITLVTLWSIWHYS
Protocol: Antagonism against Von Bezold-Jarisch reflex (BJ reflex):
The pulse was determined by measuring the electrocardiogram R waves (secondary induction) with an instantaneous pulse rate meter.

[4] = system: 5-HT3 receptors in the upper intestine; experiment: Antagonism against 5-HT-induced intestinal secretion (jejunal loop); format: in vivo, wister rats; settings: caudal vein, 15 min before serotonin
Protocol: Antagonism against 5-HT-induced intestinal secretion:
Male wister rats (8-11 weeks old) were anesthetized with urethane, and the abdomen was opened a polyethylene catheter was placed in the jejunum 5 cm distal to the duodenojejunal flexure and fixed by ligation. The second ligation was made at a distal point of 20 cm to create a jejunal loop. Two ml of physiological saline was injected into this loop and initiated continuous injection of physiological saline (0.1 ml/min) or 5-HT (3 μg/0.1 ml/kg/min, serotonin treated group) into the mesenteric artery through the mesenteric artery gastric branch, and after 30 minutes the jejunal loop was isolated, the residual fluid amount was measured, and the net fluid transfer per gram of tissue weight was calculated. The net fluid transfer was expressed as the fluid amount (weight) change in 30 minutes per jejunal tissue weight (g/30 min/g). A "+" was assigned when the fluid amount increased compared with 2 ml of physiological saline injected into the loop, and "-" when it decreased

[5] = molecular target: T2, Intestinal 5-HT3 receptor (Cavia porcellus, UniProt O70212); experiment: Intestinal 5-HT3 receptor antagonism (isolated distal colon, 2-methylserotonin-induced contraction); format: cell-based, Hartley guinea pigs; settings: M (molar concentration of antagonist), isolated distal colon, 2-methylserotonin contraction
T2 sequence (O70212 24-490 limits assumed): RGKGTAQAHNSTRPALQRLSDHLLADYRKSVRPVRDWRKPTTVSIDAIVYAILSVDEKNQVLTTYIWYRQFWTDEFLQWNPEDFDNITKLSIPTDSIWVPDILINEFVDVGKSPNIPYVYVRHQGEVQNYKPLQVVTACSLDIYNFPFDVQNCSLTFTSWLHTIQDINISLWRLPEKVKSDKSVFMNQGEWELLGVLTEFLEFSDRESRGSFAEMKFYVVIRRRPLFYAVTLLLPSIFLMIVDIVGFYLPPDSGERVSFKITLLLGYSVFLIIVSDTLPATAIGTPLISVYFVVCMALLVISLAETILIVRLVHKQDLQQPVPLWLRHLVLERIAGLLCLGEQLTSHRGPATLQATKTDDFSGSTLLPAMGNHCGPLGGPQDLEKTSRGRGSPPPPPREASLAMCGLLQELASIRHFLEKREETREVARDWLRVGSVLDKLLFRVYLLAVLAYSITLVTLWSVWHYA
Protocol: The test was conducted following the method of Miyata, et al. (The Journal of Pharmacology and Experimental Therapeutics Vol.259, No:1, 15 (1991)).
Male Hartley guinea pigs with a body weight of 300-400 g were bled to death, the distal colon (3-10 cm from the anus) was isolated and suspended in a Magnus tube filled with Krebs solution aerated with a mixed gas (95% O2, 5% CO2), and subjected to a tensile load of 1 g. After constant contraction by cumulative addition of 2-methylserotonin (10^-6 -10^-4 M) was obtained, the test agent was added and the pA2 value of the test agent was calculated based on its inhibiting action on the initial value.
The value (pA2 value) is defined as the negative logarithm (-logM) of the molar concentration (M) of the antagonist required to reduce the effect of serotonin at a concentration of 2 times the 2-methylserotonin concentration (EC50) necessary to induce half of the maximum contraction reaction, to an effect induced by an EC50 of serotonin.

[6] = system: duodenal extension reflex; experiment: Inhibiting effect on duodenal extension reflex; format: in vivo, Wistar rats; settings: intravenous
Text: Inhibiting effect on duodenal extension reflex: Unfasted male Wistar rats with a body weight of 300-390 g were opened at the abdomen under urethane anesthesia, and ligated at 2 locations, the gastric pyloric region and 3-4 cm directly under it, to create a duodenal loop. […] The beaker was raised at once to create a internal loop pressure of 75 cm H2, and the depressor reflex and effect of the test agent administration were observed. […] The test agent was then administrated intravenously, and at 5, 15 and 25 minutes after administration an extension stimulus was applied, the depressor reflex was observed, and the differences were expressed as percentages with respect to the initial value, to give the inhibition rates.

stress-related diarrhea = settings: animal models; J. Pharmacol. Exp. Ther. 261, 297 (1992); cited from earlier work
[7] = system: restrained stress-induced diarrhea; experiment: Inhibiting effect on restrained stress-induced diarrhea (oral administration); format: in vivo, Wistar rats; settings: 1 hour before stress
Protocol: Inhibiting effect on restrained stress-induced diarrhea (oral administration): This test was conducted following the method of Miyata, et al. […] Nine-week-old male Wistar rats fasted overnight were placed in a stress cage and their feces produced in 5 hours were observed. Of 15 rats, 14 developed diarrhea. The inhibiting effect on diarrhea was measured by oral administration of the test compounds one hour prior to placement in the stress cage.

Cl.Cn1cc(C(=O)[C@@H]2CCc3nc[nH]c3C2)c2ccccc21 [YM-060, (R)-(-)-5-[(1-methylindol-3-yl)carbonyl]-4,5,6,7-tetrahydrobenzimidazole hydrochloride, reference compound]
Latency* (time to initial retching) ([1]; 0.3 μg): 127.0 min
Latency** (time to initial vomiting) ([1]; 0.3 μg): 134.0 min
No. of retching ([1]; 0.3 μg): 126.0
No. of vomiting animals/No. of animals used ([1]; 0.3 μg): 2/2
No. of vomitings ([1]; 0.3 μg): 6.5
Latency* (time to initial retching) ([1]; 1.0 μg): > 272.2 min
Latency** (time to initial vomiting) ([1]; 1.0 μg): > 303.0 min
No. of retching ([1]; 1.0 μg): 41.6
No. of vomiting animals/No. of animals used ([1]; 1.0 μg): 3/5
No. of vomitings ([1]; 1.0 μg): 1.2
Gastric evacuation (gastric emptying; 0.3 μg/kg): 51.8%
Gastric evacuation (gastric emptying; 1.0 μg/kg): 74.2%
antiemetic effect (in words) (vomiting): powerful antiemetic effect
Inhibition rate [2]: 50%
No. of animals with diarrhea/No. of animals used [2]: 7/14
ED50 [3]: 8.6e-05 µmol/kg
net fluid transfer in jejunal loop ([4]; 1.0 μg/kg): -0.49 ± 0.06 g/30 min/g tissue weight
net fluid transfer in jejunal loop ([4]; 10 μg/kg): -0.74 ± 0.09 g/30 min/g tissue weight
Kb [5]: 4.5 nM
Inhibition rate, 5-min value ([6]; 1 μg/kg): -27.9%
Inhibition rate, 15-min value ([6]; 1 μg/kg): -30.8%
Inhibition rate, 25-min value ([6]; 1 μg/kg): -14.8%
Inhibition rate, 5-min value ([6]; 10 μg/kg): 16.3%
Inhibition rate, 15-min value ([6]; 10 μg/kg): 6.3%
Inhibition rate, 25-min value ([6]; 10 μg/kg): 7.9%
suppression of stress-related diarrhea (in words) (stress-related diarrhea): suppress stress-related diarrhea in animal models, with the effect of YM-060 being the strongest
Inhibition rate ([7]; 30 μg/kg): 60%
No. of animals with diarrhea/No. of animals used ([7]; 30 μg/kg): 4/10
Inhibition rate ([7]; 100 μg/kg): 75%
No. of animals with diarrhea/No. of animals used ([7]; 100 μg/kg): 2/8
